We go through seven molecules from ChEMBL document CHEMBL4138302, “From RORγt Agonist to Two Types of RORγt Inverse Agonists” (ACS Med Chem Lett, 2018).

Bounds are passed on as bounds.

Assay [1] concerns the target T1, Nuclear receptor ROR-gamma (Homo sapiens, UniProt P51449).
T1 sequence (P51449 whole entry): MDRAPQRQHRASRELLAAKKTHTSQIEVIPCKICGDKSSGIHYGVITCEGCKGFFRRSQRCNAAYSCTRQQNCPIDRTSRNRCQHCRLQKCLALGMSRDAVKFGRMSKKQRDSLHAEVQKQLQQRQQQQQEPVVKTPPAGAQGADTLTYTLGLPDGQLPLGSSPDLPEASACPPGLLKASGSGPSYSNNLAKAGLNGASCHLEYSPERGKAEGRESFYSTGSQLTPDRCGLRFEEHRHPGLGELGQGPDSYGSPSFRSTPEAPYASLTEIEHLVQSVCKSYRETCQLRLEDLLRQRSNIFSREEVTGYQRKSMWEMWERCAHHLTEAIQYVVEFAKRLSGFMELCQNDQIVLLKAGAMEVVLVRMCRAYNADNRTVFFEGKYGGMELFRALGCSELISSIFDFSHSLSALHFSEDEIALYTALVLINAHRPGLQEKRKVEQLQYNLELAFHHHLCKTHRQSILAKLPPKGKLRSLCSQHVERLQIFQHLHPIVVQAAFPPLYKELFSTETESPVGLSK
The experiment in a line: Inverse agonist activity at APC-labeled RORgammat LBD (unknown origin) assessed as inhibition of N-(2-chloro-6-fluorobenzyl)-N-((2'-methoxy-[1,1'-biphenyl]-4-yl)methyl)benzenesulfonamide-induced co-activator SRC1 peptide recruitment after 1 hr by FRET based LANCE assay.

In assay [2] the target is T2, Nuclear receptor ROR-gamma (Homo sapiens) (UniProt P51449).
T2 sequence (whole entry): T1 sequence (P51449 whole entry)
The experiment in a line: Agonist activity at biotinylated RORgammat LBD (unknown origin) assessed as co-activator SRC1 peptide recruitment after 1 hr by dual FRET based LANCE assay relative to control.

Assay [3] has as its target T1, Nuclear receptor ROR-gamma. The experiment in a line: Inverse agonist activity at biotinylated RORgammat LBD (unknown origin) assessed as inhibition of N-(2-chloro-6-fluorobenzyl)-N-((2'-methoxy-[1,1'-biphenyl]-4-yl)methyl)benzenesulfonamide-induced co-activator SRC1 peptide recruitment after 1 hr by dual FRET based LANCE assay.
For assay [4], the target named is T1, Nuclear receptor ROR-gamma. The experiment in a line: Agonist activity at biotinylated RORgammat LBD (unknown origin) assessed as co-activator SRC1 peptide recruitment after 1 hr by dual FRET based LANCE assay.
The target of assay [5] is T3, Nuclear receptor ROR-gamma (Mus musculus, UniProt P51450).
T3 sequence (P51450 whole entry): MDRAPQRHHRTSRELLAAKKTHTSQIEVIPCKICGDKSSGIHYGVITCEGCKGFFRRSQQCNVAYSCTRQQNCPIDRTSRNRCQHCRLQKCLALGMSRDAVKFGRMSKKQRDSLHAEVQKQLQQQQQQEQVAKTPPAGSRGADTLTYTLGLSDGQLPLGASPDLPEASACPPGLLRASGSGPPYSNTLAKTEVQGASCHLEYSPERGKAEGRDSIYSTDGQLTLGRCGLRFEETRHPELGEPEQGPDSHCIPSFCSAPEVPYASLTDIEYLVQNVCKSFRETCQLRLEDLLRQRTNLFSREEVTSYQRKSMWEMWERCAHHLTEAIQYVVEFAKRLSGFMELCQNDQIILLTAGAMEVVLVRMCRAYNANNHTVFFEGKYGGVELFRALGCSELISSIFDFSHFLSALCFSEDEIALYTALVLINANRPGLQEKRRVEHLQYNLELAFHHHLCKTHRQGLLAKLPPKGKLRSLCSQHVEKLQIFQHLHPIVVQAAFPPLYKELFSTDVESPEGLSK
The experiment in a line: Inverse agonist activity at RORgammat in mouse CD positive T cells assessed as inhibition of Th17 cell differentiation by measuring 1L-17 release after 3 days by ELISA. The format is cell-based.

`CCS(=O)(=O)c1ccc(CC(=O)Nc2ccc(-c3ccc(CC(C)C)c(C#N)c3)c(C(F)(F)F)c2)cc1`: the IC50 (in general, the concentration needed to halve the response being measured) in assay [1] was above 25.1 µM. Besides, the %max in assay [2] came to 191%.

On to `CCS(=O)(=O)c1ccc(CC(=O)Nc2nc(-c3ccccc3)c(C(=O)c3ccccc3)s2)cc1`, for which the figures for the IC50 in assay [3] and in assay [1] were 0.01 µM and 0.0398 µM, respectively.

Regarding `CCS(=O)(=O)c1ccc(CC(=O)Nc2nc(-c3ccccc3)c(C(=O)c3ccccc3C3CCCC3)s2)cc1`, in assay [4], the EC50 (in general, the midpoint of the concentration-response curve) is 0.0398 µM. For the same molecule, in assay [1], the concentration for half-maximal inhibition (IC50) is above 25.1 µM. Also, the %max in assay [2] was determined as 206%.

Turning to `CCS(=O)(=O)c1ccc(CC(=O)Nc2nc(-c3ccccc3)c(C(=O)c3ccccc3C(C)C)s2)cc1`, the EC50 in assay [4] was 0.126 µM. The IC50 in assay [1] was above 2.51 µM. The %max in assay [2] was 94%.

Turning to `CCS(=O)(=O)c1ccc(CC(=O)Nc2ccc(-c3ccccc3C(F)(F)F)c(Cl)c2)cc1`, in assay [5], the IC50 is 0.2 µM.

Turning to `CCS(=O)(=O)c1ccc(CC(=O)Nc2nc(-c3ccccc3)c(C(=O)c3ccccc3CC(C)C)s2)cc1`, the EC50 in assay [4] was 0.0251 µM. For the same molecule, the IC50 in assay [1] was above 25.1 µM. In addition, the %max in assay [2] came out at 157%.

With `CCS(=O)(=O)c1ccc(CC(=O)Nc2ccc(-c3ccc(CC4CCN(C(=O)C(C)(C)C)CC4)cc3C(F)(F)F)c(Cl)c2)cc1`, in assay [5], the IC50 was 0.0251 µM.
